Activity calls are given as the source filed them. No cut-off for these calls is given here.

From ChEMBL document CHEMBL4340507, “Identification of an indol-based multi-target kinase inhibitor through phenotype screening and target fishing using inverse virtual screening approach” (Eur J Med Chem, 2019) come the findings set out here.

Data set [1] addresses Rho-associated protein kinase 1 (Homo sapiens, UniProt Q13464). Description: Inhibition of recombinant human ROCK1 measured after 60 mins in presence of [gamma-33P]-ATP by scintillation counting method.
The target of data set [2] is T1, RAC-beta serine/threonine-protein kinase (Homo sapiens, UniProt P31751). Description: Inhibition of recombinant human N-terminal GST-His6-fused AKT2 C-terminal domain (A107 to E481 residues) expressed in Sf9 insect cells using GSK3(14-27)tide as substrate measured after 60 mins in presence of [gamma-33P]-ATP by scintillation counting method.
Data set [3] addresses Fibroblast growth factor receptor 1 (Homo sapiens, UniProt P11362). Nature of the data set: Inhibition of recombinant human wild-type N-terminal GST-His6-fused FGFR1 C-terminal domain (G400 to R820 residues) expressed in Sf9 insect cells using Poly(Glu:Tyr)4:1 as substrate measured after 60 mins in presence of [gamma-33P]-ATP by scintillation counting method.
In data set [4] the target is SRSF protein kinase 1 (Homo sapiens, UniProt Q96SB4). Description: Inhibition of recombinant human full-length N-terminal GST-His6-fused SRPK1 (M1 to S655 residues) expressed in Sf9 insect cells using RS-peptide as substrate measured after 60 mins in presence of [gamma-33P]-ATP by scintillation counting method.
Data set [5] concerns the target Vascular endothelial growth factor receptor 1 (Homo sapiens, UniProt P17948). Nature of the data set: Inhibition of recombinant human N-terminal GST-tagged VEGFR1 C-terminal domain (K784 to I1338 residues) expressed in Sf9 insect cells using Poly(Glu:Tyr)4:1 as substrate measured after 60 mins in presence of [gamma-33P]-ATP by scintillation counting method.
For data set [6], the target named is Vascular endothelial growth factor receptor 2 (Homo sapiens, UniProt P35968). Description: Inhibition of recombinant human N-terminal GST-fused VEGFR2 C-terminal domain (D807 to V1356 residues) expressed in Sf9 insect cells using Poly(Glu:Tyr)4:1 as substrate measured after 60 mins in presence of [gamma-33P]-ATP by scintillation counting method.
In data set [7] the test system is IEC-6. Nature of the data set: Induction of apoptosis in rat IEC-6 cells assessed as increase in hypodiploid nuclei at 0.1 to 0.6 uM measured after 24 hrs by propidium iodide staining-based FACS analysis. To be noted: iec-6, 24 h. The class given is cell-based.
The subject of data set [8] is HeLa. Description: Induction of ROS generation in human HeLa cells at 0.1 to 0.6 uM measured after 24 hrs by H2DC-DA probe-based FACS analysis. The format is functional, cell-based.
For data set [9], the system named is HeLa. Description: Induction of apoptosis in human HeLa cells assessed as increase in caspase 3 level at 0.1 to 0.6 uM after 24 hrs by FACS analysis. The class given is functional, cell-based. A general note: Flow cytometry measures light scatter and fluorescence of single cells or particles in a stream.
Data set [10] deals with IEC-6. Nature of the data set: Induction of apoptosis in rat IEC-6 cells assessed as increase in caspase 3 level at 0.1 to 0.6 uM after 24 hrs by FACS analysis. To be noted: iec-6, 24 h. The format is cell-based.
In data set [11] the target is Epidermal growth factor receptor (Homo sapiens, UniProt P00533). Nature of the data set: Inhibition of recombinant human wild-type N-terminal GST-His6-fused EGFR C-terminal domain (H672 to A1210) expressed in Sf9 insect cells using Poly(Glu:Tyr)4:1 as substrate measured after 60 mins in presence of [gamma-33P]-ATP by scintillation counting method.
In data set [12] the target is Mitogen-activated protein kinase kinase kinase 1 (Homo sapiens, UniProt Q13233). Description: Inhibition of recombinant human N-terminal 4xFLAG-tagged/C-terminal His8 fused MAP3K1 C-terminal domain (M1193 to W1512 residues) expressed in Sf9 insect cells using Bio-RS-Peptide as substrate measured after 60 mins in presence of [gamma-33P]-ATP by scintillation counting method.

Data set [13] has as its target Proto-oncogene tyrosine-protein kinase Src (Homo sapiens, UniProt P12931). Description: Inhibition of recombinant human full-length N-terminal GST-His6-fused SRC (M1 to L536 residues) expressed in Sf9 insect cells using Poly(Glu:Tyr)4:1 as substrate measured after 60 mins in presence of [gamma-33P]-ATP by scintillation counting method.
Data set [14] concerns the target BDNF/NT-3 growth factors receptor (Homo sapiens, UniProt Q16620). Nature of the data set: Inhibition of recombinant human N-terminal GST-His6-fused TRKB C-terminal domain (V526 to G838 residues) expressed in Sf9 insect cells using Poly(Glu:Tyr)4:1 as substrate measured after 60 mins in presence of [gamma-33P]-ATP by scintillation counting method.
Data set [15] has as its system HeLa. Description: Inhibition of ERK phosphorylation in human HeLa cells at 0.1 to 0.6 uM after 24 hrs by FACS analysis. The class given is cell-based.
For data set [16], the target named is Fibroblast growth factor receptor 2 (Homo sapiens, UniProt P21802). Nature of the data set: Inhibition of recombinant human N-terminal GST-His6-fused FGFR2 C-terminal domain (R400 to T822 residues) expressed in Sf9 insect cells using TRK-C derived peptide as substrate measured after 60 mins in presence of [gamma-33P]-ATP by scintillation counting method.
Data set [17] deals with Mitogen-activated protein kinase 1 (Homo sapiens, UniProt P28482). Description: Inhibition of recombinant human full-length untagged ERK2 (M1 to S360 residues) expressed in Escherichia coli using recombinant ELK1 as substrate measured after 60 mins in presence of [gamma-33P]-ATP by scintillation counting method.
Data set [18] deals with Mitogen-activated protein kinase 7 (Homo sapiens, UniProt Q13164). Description: Inhibition of recombinant human N-terminal FLAG-tagged/C-terminal His8 fused ERK5 internal fragment domain (L5 to Q397 residues) expressed in Sf9 insect ells using RBER-CHKtide as substrate measured after 60 mins in presence of [gamma-33P]-ATP by scintillation counting method.
Data set [19] addresses Receptor tyrosine-protein kinase erbB-2 (Homo sapiens, UniProt P04626). Nature of the data set: Inhibition of recombinant human wild-type N-terminal GST-His6-fused ERBB2 C-terminal domain (Q679 to V1255 residues) expressed in Sf9 insect cells using Poly(Glu:Tyr)4:1 as substrate measured after 60 mins in presence of [gamma-33P]-ATP by scintillation counting method.
Data set [20] has as its target T1, RAC-beta serine/threonine-protein kinase. Nature of the data set: Inhibition of recombinant human full-length N-terminal GST-His6-fused AKT2 (M1 to E481 residues) expressed in Sf9 insect cells using GSK3-derived peptide as substrate measured after 60 mins in presence of [gamma-33P]-ATP by scintillation counting method.
The target of data set [21] is Tyrosine-protein kinase ABL1 (Homo sapiens, UniProt P00519). Nature of the data set: Inhibition of recombinant human wild-type N-terminal GST-His6-fused ABL1 internal domain (P118 to S535 residues) expressed in Sf9 insect cells using Poly(Ala,Glu,Lys,Tyr)6:2:5:1 as substrate measured after 60 mins in presence of [gamma-33P]-ATP by scintillation counting method.
The target of data set [22] is Serine/threonine-protein kinase Chk2 (Homo sapiens, UniProt O96017). Nature of the data set: Inhibition of recombinant human CHK2 measured after 60 mins in presence of [gamma-33P]-ATP by scintillation counting method.
The subject of data set [23] is IEC-6. Nature of the data set: Cytotoxicity against rat IEC-6 cells assessed as reduction in cell viability measured after 24 to 72 hrs by MTT assay. The class given is cell-based. The note with it: Rattus norvegicus, IEC-6. For orientation: Tetrazolium assays rely on reduction of a dye to a coloured formazan, in cell work by metabolically active cells.

T1 sequence (P31751 whole entry, the tested form may be a part): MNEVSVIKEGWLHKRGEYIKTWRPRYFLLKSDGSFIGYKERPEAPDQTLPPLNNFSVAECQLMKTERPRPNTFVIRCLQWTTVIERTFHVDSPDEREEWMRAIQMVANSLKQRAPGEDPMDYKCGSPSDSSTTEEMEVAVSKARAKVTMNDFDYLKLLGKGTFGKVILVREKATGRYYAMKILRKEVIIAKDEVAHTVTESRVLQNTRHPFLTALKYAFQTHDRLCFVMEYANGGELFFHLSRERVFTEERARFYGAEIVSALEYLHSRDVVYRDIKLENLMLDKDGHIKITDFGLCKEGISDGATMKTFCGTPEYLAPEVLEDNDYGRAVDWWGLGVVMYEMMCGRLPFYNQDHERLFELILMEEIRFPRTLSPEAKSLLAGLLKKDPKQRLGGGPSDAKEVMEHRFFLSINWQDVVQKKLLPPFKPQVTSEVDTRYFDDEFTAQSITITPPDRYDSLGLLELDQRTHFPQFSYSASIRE
Epidermal growth factor receptor, sequence (P00533 whole entry, the tested form may be a part): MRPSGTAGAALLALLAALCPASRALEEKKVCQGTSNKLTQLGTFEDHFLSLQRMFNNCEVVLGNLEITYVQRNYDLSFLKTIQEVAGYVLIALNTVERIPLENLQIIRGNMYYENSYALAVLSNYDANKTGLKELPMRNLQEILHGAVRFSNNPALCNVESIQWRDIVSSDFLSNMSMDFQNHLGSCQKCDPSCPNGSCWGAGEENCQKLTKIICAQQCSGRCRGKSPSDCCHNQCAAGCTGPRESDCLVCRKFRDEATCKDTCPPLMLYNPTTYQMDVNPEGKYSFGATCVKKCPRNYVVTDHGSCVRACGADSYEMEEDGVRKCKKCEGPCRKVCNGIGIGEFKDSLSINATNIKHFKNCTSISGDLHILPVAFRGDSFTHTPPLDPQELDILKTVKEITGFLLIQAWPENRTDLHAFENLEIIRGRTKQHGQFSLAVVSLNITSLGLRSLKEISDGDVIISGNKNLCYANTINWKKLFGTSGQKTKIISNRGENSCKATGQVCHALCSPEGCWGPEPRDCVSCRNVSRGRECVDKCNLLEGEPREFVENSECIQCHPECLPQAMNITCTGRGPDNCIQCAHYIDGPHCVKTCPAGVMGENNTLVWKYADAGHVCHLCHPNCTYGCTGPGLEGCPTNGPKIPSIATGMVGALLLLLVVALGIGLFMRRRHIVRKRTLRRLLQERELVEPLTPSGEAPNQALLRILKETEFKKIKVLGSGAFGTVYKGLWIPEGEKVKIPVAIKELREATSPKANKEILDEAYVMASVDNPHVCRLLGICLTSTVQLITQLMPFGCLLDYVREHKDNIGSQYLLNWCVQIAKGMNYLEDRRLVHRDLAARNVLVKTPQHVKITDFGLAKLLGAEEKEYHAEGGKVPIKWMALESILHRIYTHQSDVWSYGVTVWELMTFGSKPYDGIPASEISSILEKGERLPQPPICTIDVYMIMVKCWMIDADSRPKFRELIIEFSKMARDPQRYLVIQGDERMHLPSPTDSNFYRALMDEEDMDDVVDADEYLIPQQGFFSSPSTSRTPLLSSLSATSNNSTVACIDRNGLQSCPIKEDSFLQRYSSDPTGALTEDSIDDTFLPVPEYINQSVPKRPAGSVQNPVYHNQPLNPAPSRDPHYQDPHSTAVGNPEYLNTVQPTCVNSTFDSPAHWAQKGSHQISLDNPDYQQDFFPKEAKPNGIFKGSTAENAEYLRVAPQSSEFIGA
Mitogen-activated protein kinase 1, sequence (P28482 whole entry, the tested form may be a part): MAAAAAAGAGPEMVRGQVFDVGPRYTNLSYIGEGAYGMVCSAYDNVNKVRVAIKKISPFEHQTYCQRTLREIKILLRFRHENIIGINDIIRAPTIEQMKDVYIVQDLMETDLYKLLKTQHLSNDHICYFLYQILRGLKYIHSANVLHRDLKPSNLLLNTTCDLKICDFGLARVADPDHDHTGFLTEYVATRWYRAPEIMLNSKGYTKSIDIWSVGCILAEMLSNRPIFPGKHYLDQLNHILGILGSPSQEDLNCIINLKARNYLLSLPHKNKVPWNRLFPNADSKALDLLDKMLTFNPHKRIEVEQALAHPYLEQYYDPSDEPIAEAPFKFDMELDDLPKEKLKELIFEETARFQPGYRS
Proto-oncogene tyrosine-protein kinase Src, sequence (P12931 2-536 limits assumed): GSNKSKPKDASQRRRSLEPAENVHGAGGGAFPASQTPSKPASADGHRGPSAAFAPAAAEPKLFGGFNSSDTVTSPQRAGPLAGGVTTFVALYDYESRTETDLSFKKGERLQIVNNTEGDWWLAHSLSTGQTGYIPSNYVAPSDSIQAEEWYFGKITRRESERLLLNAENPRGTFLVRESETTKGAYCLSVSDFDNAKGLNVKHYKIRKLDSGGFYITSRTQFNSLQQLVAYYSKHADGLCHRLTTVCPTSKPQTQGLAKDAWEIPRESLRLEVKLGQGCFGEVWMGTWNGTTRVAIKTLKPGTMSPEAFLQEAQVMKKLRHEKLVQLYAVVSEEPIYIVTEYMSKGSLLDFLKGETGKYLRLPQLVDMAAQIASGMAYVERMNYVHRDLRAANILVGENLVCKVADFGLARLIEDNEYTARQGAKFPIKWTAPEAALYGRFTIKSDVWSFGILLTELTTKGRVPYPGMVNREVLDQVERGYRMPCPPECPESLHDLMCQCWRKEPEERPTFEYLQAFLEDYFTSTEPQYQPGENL
Rho-associated protein kinase 1, sequence (Q13464 whole entry, the tested form may be a part): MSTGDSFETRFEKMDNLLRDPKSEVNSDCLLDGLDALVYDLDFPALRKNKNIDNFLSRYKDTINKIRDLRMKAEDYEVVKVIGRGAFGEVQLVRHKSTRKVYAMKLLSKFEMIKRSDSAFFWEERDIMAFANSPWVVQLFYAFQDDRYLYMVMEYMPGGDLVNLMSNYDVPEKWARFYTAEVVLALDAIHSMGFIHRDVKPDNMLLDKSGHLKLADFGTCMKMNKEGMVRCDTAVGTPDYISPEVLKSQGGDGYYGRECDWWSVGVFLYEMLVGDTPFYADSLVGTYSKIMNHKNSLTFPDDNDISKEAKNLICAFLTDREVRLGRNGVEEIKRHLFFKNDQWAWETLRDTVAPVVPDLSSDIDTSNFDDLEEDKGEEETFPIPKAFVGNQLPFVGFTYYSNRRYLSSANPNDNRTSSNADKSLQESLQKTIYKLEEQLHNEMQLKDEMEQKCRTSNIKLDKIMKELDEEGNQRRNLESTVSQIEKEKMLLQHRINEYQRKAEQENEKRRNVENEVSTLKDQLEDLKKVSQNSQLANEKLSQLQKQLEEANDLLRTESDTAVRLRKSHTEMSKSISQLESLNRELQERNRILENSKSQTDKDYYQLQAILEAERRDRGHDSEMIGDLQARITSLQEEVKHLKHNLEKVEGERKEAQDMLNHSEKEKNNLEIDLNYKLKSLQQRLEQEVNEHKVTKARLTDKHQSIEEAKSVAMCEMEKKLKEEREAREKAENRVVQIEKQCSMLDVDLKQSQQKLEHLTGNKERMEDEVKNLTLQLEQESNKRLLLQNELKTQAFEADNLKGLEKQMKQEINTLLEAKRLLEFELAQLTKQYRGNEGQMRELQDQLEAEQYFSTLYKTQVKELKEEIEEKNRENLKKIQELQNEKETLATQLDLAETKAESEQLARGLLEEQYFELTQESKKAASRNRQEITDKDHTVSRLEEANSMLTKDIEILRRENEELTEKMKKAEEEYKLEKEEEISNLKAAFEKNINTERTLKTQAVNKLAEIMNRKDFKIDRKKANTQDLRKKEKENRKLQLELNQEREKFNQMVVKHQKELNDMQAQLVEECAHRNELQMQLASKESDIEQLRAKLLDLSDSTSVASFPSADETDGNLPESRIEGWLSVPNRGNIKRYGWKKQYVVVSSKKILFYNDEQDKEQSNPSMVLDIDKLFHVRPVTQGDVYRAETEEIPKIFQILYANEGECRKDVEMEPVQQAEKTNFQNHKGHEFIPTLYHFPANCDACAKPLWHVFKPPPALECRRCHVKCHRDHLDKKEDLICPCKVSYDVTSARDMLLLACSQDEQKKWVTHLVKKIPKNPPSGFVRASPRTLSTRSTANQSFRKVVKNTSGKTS
Fibroblast growth factor receptor 1, sequence (P11362 whole entry, the tested form may be a part): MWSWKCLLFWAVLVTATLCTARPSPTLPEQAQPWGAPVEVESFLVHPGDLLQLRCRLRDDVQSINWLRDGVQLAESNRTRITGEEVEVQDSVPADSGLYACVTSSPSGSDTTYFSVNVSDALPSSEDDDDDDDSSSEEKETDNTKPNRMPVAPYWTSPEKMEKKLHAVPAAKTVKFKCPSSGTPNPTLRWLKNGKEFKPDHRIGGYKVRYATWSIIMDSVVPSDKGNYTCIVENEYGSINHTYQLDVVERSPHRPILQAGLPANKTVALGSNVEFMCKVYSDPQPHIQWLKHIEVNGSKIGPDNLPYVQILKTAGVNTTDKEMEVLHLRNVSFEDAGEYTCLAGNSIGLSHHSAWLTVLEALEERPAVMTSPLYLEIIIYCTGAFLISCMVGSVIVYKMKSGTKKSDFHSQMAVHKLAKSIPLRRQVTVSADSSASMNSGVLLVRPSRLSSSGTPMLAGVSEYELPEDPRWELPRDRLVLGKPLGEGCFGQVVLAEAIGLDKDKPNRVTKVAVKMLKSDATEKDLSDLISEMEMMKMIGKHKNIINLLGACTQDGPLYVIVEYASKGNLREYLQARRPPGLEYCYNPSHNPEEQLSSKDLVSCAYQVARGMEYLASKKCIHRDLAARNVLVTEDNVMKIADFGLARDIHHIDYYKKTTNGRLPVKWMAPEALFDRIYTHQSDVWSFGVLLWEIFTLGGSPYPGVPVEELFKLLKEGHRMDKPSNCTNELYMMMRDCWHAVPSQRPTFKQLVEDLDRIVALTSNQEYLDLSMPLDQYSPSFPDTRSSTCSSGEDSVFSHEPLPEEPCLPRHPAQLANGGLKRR

The term IC50 denotes the concentration needed to halve the response being measured. Consider `CN(CCc1ccc(-c2ccccc2)cc1)Cc1cn(C)c2ccc(C(=O)Nc3ccc(F)cc3)cc12`, for which the IC50 in data set [1] came to 35 µM; in data set [2], 21 µM; in data set [3], 13 µM; in [4] it was 7.8 µM; in data set [5] it was 43 µM; in data set [6], 31 µM. Also, the IC50 was found to be 10 µM in data set [11]; 66 µM in [12]; 8.8 µM in data set [13]; 6.3 µM in data set [14]; 23 µM in data set [16]; 66 µM in [17]. Further, the IC50 in data set [18] is 90 µM; in data set [19], 24 µM; in data set [20], over 100 µM; in data set [21], 69 µM; in data set [22], 79 µM; in data set [23], 6.43 µM. The Activity entry in data set [7] and in data set [10] was “Toxic” each time. In addition, the outcome in data set [8] and in data set [9] was Active. For the same compound, the inhibition entry in data set [15] was “Active”.
